Results: ChEMBL document CHEMBL5154787 (J Med Chem, 2022)

What was measured:
[1] = Inhibition of CK2A2 (unknown origin); design: species or system Homo sapiens
[2] = Metabolic stability in rat liver microsomes assessed as parent compound remaining at 0.5 uM incubated for 10 mins in presence of NADPH by LC-MS/MS analysis; type: ADME, Microsome; conditions: read-out: Stability
[3] = Cardiotoxicity in aortic ring (unknown origin) assessed as relaxation of phenylephrine induced aortic ring contraction at 10 uM incubated for 1 hr; type: toxicity, tissue-based, Aorta; design: scale not given: the % may be the effect or the level left; conditions: human
Cytochrome P450 3A4 = Cytochrome P450 3A4 (Homo sapiens, UniProt P08684); experiment: Inhibition of CYP3A4 (unknown origin) incubated for 10 mins in presence of NADPH by LC-MS/MS analysis; type: ADME
[4] = target: BMP-2-inducible protein kinase (Homo sapiens, UniProt Q9NSY1); experiment: Inhibition of BIKE (unknown origin)
[5] = Metabolic stability in mouse liver microsomes assessed as parent compound remaining at 0.5 uM incubated for 10 mins in presence of NADPH by LC-MS/MS analysis; type: ADME, Microsome; conditions: liver microsomes, read-out: Stability
[6] = target: Death-associated protein kinase 1 (Homo sapiens, UniProt P53355); experiment: Inhibition of DAPK1 (unknown origin)
[7] = target: Rho-associated protein kinase 2 (Homo sapiens, UniProt O75116); experiment: Inhibition of ROCK2 (unknown origin)
[8] = target: AP2-associated protein kinase 1 (Mus musculus, UniProt Q3UHJ0); experiment: Displacement of 3H-LP-927443 from AAK1 in C57BL6 mouse brain homogenate assessed as inhibition constant incubated for 1 hr by liquid scintillation counter analysis; type: tissue-based
[9] = Metabolic stability in human liver microsomes assessed as parent compound remaining at 0.5 uM incubated for 10 mins in presence of NADPH by LC-MS/MS analysis; type: ADME, Microsome; conditions: read-out: Stability
Myotonin-protein kinase = Myotonin-protein kinase (Homo sapiens, UniProt Q09013); experiment: Inhibition of DMPK1 (unknown origin)
[10] = Inhibition of MEK (unknown origin); design: species or system Homo sapiens
[11] = target: T1, AP2-associated protein kinase 1 (Homo sapiens, UniProt Q2M2I8); experiment: Inhibition of bacterially expressed GST-Xa-tagged human AAK1 using 5-FAM-labelled Aha-KEEQSQITSQVTGQIGWR-NH2 peptide as substrate incubated for 3 hrs in presence of ATP by electrophoretic analysis
[12] = target: Death-associated protein kinase 3 (Homo sapiens, UniProt O43293); experiment: Inhibition of DAPK3 (unknown origin)
[13] = target: T2, Cyclin-G-associated kinase (Homo sapiens, UniProt O14976); experiment: Inhibition of GAK (unknown origin)
T2 sequence (O14976 whole entry): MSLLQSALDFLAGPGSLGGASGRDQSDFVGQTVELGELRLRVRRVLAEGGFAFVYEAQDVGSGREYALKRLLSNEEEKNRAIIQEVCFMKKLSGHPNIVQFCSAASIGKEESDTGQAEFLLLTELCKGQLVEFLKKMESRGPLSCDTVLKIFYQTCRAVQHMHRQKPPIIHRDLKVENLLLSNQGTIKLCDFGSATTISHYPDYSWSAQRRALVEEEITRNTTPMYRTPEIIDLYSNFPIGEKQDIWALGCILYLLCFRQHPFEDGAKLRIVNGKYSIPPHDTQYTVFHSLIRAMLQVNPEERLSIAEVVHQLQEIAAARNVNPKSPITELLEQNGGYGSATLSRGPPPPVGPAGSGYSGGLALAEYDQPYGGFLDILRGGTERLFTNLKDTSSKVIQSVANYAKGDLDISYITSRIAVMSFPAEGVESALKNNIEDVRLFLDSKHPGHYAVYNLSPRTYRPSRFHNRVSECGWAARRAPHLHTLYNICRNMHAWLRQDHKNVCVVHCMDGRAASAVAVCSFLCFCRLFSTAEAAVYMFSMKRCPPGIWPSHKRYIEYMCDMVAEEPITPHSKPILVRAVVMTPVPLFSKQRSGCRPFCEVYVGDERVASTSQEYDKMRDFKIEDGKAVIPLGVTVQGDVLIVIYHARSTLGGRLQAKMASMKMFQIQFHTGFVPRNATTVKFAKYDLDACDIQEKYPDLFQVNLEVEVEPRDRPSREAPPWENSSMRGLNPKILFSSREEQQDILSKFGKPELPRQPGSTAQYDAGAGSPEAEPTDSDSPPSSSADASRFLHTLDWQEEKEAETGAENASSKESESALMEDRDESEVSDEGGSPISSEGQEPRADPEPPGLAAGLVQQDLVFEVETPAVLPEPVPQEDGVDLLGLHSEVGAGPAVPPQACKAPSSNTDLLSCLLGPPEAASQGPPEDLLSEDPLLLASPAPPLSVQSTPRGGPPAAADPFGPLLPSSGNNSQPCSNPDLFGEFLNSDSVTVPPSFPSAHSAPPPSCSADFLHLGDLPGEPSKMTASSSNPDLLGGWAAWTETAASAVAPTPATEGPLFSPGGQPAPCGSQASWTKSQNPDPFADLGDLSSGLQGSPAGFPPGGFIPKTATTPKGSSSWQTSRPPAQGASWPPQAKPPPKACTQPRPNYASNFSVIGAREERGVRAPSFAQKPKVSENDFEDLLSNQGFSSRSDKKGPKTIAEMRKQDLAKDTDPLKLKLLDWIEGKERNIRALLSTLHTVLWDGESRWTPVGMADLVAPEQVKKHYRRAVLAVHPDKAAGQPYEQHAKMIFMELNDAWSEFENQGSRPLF

[14] = target: MAP kinase-interacting serine/threonine-protein kinase 2 (Homo sapiens, UniProt Q9HBH9); experiment: Inhibition of MNK2 (unknown origin)
[15] = target: T3, Homeodomain-interacting protein kinase 4 (Homo sapiens, UniProt Q8NE63); experiment: Inhibition of HIPK4 (unknown origin)
T3 sequence (Q8NE63 whole entry): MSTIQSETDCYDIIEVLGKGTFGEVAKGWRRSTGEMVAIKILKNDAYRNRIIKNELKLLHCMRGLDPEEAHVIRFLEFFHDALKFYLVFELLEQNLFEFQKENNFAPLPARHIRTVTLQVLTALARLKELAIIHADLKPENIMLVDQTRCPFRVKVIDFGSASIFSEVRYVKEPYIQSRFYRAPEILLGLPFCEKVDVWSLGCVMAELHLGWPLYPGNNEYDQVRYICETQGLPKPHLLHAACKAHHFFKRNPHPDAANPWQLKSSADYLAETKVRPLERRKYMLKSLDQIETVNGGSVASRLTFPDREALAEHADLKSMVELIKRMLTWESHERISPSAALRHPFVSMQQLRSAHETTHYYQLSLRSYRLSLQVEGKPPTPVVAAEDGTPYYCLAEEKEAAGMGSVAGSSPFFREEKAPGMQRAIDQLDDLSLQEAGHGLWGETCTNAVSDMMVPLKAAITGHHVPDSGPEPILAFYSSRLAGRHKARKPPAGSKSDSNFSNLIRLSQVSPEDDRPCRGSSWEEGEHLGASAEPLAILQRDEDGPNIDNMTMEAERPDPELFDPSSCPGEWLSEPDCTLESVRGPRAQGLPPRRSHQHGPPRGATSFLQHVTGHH

[16] = target: Tyrosine-protein kinase receptor TYRO3 (Homo sapiens, UniProt Q06418); experiment: Inhibition of TYRO3 (unknown origin)
[17] = target: Citron Rho-interacting kinase (Homo sapiens, UniProt O14578); experiment: Inhibition of CRIK (unknown origin)
[18] = target: Myosin light chain kinase 2, skeletal/cardiac muscle (Homo sapiens, UniProt Q9H1R3); experiment: Inhibition of MYLK2 (unknown origin)
[19] = target: MAP kinase-interacting serine/threonine-protein kinase 1 (Homo sapiens, UniProt Q9BUB5); experiment: Inhibition of MNK1 (unknown origin)
[20] = target: TRAF2 and NCK-interacting protein kinase (Homo sapiens, UniProt Q9UKE5); experiment: Inhibition of TNIK (unknown origin)
[21] = target: T1, AP2-associated protein kinase 1; experiment: Inhibition of full length human AAK1 expressed in HEK293F cells assessed as suppression of AP2 phosphorylation measured after 3 hrs by Western blot analysis based cellular assay; type: cell-based
[22] = target: T4, Dual specificity mitogen-activated protein kinase kinase 1 (Homo sapiens, UniProt Q02750); experiment: Inhibition of MEK1 (unknown origin)
[23] = target: Dual specificity protein kinase CLK4 (Homo sapiens, UniProt Q9HAZ1); experiment: Inhibition of CLK4 (unknown origin)
[24] = target: T4, Dual specificity mitogen-activated protein kinase kinase 1; experiment: Inhibition of MAP2K1 (unknown origin)

T1 sequence (Q2M2I8 whole entry): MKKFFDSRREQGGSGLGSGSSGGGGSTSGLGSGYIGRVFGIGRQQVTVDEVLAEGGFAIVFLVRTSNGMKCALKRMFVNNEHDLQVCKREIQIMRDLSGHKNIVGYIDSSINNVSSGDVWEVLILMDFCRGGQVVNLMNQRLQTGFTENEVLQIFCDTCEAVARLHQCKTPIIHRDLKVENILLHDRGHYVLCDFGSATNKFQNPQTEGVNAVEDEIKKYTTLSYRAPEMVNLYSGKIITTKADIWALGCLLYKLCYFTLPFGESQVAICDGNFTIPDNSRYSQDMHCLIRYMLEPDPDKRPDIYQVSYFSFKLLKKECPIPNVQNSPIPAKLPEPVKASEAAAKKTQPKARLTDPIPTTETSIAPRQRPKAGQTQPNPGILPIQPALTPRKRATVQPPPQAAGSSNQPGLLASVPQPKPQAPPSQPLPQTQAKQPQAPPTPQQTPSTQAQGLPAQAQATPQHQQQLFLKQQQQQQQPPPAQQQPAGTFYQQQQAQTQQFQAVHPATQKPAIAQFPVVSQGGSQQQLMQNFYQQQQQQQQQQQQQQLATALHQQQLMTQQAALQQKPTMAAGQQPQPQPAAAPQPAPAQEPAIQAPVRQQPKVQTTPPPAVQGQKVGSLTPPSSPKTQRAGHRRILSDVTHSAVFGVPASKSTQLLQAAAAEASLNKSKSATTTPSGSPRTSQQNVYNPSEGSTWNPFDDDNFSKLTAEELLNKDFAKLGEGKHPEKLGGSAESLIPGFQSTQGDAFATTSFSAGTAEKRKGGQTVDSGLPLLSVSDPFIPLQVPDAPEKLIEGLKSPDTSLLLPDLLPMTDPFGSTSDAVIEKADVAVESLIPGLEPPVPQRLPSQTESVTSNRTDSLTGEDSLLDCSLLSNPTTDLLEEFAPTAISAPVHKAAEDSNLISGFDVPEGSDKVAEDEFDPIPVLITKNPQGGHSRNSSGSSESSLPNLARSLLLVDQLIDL
Chain of Cytochrome P450 3A4 (P08684 whole entry): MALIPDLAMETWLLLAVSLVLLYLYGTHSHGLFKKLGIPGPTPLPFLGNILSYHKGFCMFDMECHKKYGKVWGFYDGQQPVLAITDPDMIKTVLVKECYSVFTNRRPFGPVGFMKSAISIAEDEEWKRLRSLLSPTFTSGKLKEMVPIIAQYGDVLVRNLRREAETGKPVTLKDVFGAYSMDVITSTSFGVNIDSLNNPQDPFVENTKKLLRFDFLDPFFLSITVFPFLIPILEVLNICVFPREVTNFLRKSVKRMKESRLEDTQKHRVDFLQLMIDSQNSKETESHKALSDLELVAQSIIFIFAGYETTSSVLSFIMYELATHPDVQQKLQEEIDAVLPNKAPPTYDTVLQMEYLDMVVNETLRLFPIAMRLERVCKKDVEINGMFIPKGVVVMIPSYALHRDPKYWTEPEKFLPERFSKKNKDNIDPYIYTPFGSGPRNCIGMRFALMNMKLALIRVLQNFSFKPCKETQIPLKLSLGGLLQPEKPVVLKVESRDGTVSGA
Chain of Rho-associated protein kinase 2 (O75116 whole entry): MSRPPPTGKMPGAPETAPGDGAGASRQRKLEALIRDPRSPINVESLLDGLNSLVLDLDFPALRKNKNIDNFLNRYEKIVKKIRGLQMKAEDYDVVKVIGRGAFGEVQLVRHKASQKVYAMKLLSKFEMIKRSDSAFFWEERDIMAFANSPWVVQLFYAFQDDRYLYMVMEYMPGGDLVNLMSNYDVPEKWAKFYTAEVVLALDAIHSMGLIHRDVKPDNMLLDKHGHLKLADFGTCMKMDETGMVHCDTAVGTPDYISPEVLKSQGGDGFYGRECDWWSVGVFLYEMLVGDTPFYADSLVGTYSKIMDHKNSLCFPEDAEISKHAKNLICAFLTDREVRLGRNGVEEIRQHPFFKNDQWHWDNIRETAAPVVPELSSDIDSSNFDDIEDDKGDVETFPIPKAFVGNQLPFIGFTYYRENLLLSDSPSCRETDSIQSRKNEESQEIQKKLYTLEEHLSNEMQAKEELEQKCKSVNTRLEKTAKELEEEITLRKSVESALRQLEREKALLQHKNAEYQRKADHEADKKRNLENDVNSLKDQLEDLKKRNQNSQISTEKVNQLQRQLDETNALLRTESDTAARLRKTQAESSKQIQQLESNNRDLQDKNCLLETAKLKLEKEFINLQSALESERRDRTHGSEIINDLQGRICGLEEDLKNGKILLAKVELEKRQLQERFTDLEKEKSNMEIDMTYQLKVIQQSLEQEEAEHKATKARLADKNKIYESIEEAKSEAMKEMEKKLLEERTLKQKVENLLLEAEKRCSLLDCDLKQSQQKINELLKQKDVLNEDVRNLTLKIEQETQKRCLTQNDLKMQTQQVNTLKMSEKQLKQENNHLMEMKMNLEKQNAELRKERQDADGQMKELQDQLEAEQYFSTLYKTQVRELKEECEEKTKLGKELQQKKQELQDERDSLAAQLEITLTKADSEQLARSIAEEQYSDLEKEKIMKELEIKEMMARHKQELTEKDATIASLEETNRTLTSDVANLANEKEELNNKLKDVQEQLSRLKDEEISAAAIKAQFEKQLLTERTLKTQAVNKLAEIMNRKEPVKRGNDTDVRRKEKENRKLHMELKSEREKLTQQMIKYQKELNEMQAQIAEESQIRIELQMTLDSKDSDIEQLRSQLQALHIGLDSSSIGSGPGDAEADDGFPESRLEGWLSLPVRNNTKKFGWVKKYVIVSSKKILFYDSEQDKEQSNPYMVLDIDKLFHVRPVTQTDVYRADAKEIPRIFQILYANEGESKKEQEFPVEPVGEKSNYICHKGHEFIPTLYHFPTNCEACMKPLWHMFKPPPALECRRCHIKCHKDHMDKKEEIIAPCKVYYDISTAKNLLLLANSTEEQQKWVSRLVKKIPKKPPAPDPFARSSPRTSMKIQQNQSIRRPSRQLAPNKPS
Chain of AP2-associated protein kinase 1 (Mus musculus, UniProt Q3UHJ0) (Q3UHJ0 whole entry): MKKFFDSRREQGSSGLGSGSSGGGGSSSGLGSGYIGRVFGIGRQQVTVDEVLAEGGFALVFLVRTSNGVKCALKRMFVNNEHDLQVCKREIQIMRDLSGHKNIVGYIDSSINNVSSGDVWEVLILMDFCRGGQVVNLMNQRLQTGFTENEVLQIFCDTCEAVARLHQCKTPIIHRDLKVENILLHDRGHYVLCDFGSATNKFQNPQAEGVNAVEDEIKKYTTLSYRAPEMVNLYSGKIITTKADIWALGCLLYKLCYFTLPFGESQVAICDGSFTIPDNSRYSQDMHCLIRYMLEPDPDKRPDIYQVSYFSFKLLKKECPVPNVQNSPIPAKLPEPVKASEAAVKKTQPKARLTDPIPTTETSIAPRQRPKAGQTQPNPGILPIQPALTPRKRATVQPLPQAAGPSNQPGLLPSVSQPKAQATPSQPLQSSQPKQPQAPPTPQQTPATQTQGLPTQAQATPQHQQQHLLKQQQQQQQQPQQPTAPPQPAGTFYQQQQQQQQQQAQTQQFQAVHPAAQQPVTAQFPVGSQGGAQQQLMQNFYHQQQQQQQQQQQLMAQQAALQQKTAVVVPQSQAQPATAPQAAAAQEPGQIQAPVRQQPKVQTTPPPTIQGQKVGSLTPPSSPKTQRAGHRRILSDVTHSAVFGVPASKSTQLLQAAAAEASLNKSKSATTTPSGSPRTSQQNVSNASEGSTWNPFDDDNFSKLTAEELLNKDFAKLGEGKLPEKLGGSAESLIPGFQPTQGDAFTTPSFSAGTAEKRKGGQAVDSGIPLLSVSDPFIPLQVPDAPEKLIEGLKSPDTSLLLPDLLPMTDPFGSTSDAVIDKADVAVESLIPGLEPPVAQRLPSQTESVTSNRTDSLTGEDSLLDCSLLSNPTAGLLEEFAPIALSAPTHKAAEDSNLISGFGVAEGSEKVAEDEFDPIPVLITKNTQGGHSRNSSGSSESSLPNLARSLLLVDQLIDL
Chain of BMP-2-inducible protein kinase (Q9NSY1 whole entry): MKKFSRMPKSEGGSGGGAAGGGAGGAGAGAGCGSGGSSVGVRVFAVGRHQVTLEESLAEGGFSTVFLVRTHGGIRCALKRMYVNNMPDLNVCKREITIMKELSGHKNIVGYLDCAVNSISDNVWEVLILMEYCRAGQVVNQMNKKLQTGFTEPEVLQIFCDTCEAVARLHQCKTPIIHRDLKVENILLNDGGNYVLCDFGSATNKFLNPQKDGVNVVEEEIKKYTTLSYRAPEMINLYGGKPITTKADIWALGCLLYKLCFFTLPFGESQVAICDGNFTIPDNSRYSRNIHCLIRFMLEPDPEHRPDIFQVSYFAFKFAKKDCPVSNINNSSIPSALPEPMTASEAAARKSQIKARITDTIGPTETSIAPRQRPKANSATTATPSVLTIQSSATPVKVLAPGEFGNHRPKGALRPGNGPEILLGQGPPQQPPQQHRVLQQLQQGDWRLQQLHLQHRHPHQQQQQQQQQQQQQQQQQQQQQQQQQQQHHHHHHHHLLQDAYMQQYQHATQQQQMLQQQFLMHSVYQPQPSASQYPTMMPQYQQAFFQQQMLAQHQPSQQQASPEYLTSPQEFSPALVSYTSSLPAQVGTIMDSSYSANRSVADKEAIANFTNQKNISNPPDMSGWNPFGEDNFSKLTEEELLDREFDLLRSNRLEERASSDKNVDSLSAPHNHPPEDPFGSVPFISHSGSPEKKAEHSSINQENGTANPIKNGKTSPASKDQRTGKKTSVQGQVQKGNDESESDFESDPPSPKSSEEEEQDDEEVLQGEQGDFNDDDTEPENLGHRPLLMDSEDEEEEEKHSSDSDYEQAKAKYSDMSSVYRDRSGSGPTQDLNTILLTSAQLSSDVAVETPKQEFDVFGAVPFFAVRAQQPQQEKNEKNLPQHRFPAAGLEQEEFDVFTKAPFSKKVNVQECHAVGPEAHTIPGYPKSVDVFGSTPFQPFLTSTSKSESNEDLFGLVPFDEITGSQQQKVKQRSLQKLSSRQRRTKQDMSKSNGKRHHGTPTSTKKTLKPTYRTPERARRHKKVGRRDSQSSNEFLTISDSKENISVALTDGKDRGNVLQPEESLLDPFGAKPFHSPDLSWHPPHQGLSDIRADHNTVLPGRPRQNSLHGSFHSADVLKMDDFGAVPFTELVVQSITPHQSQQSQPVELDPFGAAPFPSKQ

remaining at 10 min, 0.5 µM [2] [%] | IC50 (Cytochrome P450 3A4) [nM] | IC50 [4] [nM] | remaining at 10 min, 0.5 µM [5] [%] | IC50 [7] [nM] | Ki [8] [nM] | remaining at 10 min, 0.5 µM [9] [%] | IC50 [11] [nM] | IC50 [13] [nM] | IC50 [15] [nM] | IC50 [21] [nM] | SMILES | Activity [3] [%] | also measured
91 | > 20000 | 20 | 84 | 140 | 0.07 | 77 | 0.8 | 160 | 650 | – | COC(=O)Nc1cc(-c2ccc(OC[C@@](C)(N)CC(C)C)c(C(F)F)n2)ccn1 | 89 | IC50 [1]: 680 nM; IC50 [6]: 560 nM; IC50 (Myotonin-protein kinase): 1500 nM; IC50 [10]: 610 nM; IC50 [12]: 1100 nM; IC50 [14]: 120 nM; IC50 [16]: 1300 nM
100 | 13000 | – | 99 | 780 | 1.4 | 100 | 1.7 | 1800 | – | 12 | COC(=O)Nc1cc(-c2cc(C)c(OC[C@@](C)(N)CC(C)C)cn2)ccn1 | 38 | IC50 [17]: 60 nM; IC50 [18]: 600 nM; IC50 [19]: 1300 nM; IC50 [20]: 690 nM
73 | > 20000 | 6 | 65 | 1100 | 0.11 | 90 | 0.4 | – | 1300 | 4.2 | COC(=O)Nc1cc(-c2cnc(OC[C@@](C)(N)CC(C)C)c(Cl)c2)ccn1 | 87 | IC50 [22]: 1800 nM; IC50 [23]: 740 nM; IC50 [24]: 1860 nM
